In ChEMBL document CHEMBL5104090, “Recent advances in the medicinal chemistry of carbonic anhydrase inhibitors” (Eur J Med Chem, 2021):
Values belong to the compound of their own block, whether it stands above or below them.

Columns and labels:
[1] = molecular target: T1, Carbonic anhydrase 12 (Homo sapiens, UniProt O43570); conditions: time 6.0 hrs
[2] = molecular target: T1, Carbonic anhydrase 12
[3] = molecular target: T2, Carbonic anhydrase 2 (Homo sapiens, UniProt P00918)
[4] = molecular target: T3, Carbonic anhydrase 1 (Homo sapiens, UniProt P00915)
Target sequence in this assay (P00915 whole entry): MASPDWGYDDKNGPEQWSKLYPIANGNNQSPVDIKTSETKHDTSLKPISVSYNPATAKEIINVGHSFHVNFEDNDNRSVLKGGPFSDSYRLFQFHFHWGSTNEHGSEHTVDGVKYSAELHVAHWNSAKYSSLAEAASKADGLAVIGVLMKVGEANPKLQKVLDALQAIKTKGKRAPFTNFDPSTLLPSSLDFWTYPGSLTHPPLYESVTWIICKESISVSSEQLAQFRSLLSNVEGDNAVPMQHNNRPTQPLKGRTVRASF

[5] = molecular target: T4, Carbonic anhydrase 9 (Homo sapiens, UniProt Q16790)
[6] = molecular target: T3, Carbonic anhydrase 1; remark: listed apart in the source
Target sequence in this assay (P00915 whole entry): as above

[7] = in vitro; conditions: human, corneal epithelial cell
Description: Cytotoxicity against human Corneal epithelial cell assessed as cell growth inhibition at 1 % measured after 96 hrs by MTT assay relative to control

[8] = molecular target: T2, Carbonic anhydrase 2; remark: listed apart in the source
[9] = molecular target: T2, Carbonic anhydrase 2; remark: listed apart in the source
[10] = molecular target: T3, Carbonic anhydrase 1; remark: listed apart in the source
Target sequence in this assay (P00915 whole entry): as above

[11] = molecular target: Acetylcholinesterase (Homo sapiens, UniProt P22303)
Sequence of Acetylcholinesterase (P22303 whole entry): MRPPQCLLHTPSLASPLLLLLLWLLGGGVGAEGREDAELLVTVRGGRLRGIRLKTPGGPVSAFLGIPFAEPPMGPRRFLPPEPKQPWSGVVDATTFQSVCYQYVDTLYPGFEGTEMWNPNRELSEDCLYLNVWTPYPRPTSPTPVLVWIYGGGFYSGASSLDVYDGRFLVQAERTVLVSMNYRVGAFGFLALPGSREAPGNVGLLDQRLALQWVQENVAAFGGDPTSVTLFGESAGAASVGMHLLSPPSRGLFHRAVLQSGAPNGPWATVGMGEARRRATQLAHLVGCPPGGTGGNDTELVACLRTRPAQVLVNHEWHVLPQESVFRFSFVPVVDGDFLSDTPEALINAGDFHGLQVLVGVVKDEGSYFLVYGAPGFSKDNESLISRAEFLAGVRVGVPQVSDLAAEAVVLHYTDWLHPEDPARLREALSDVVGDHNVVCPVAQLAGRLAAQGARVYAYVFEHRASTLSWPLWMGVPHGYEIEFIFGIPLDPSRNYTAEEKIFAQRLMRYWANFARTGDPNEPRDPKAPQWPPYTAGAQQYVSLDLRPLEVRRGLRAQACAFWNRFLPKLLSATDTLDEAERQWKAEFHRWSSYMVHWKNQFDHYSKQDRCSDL

[12] = molecular target: T2, Carbonic anhydrase 2; remark: listed apart in the source
[13] = molecular target: T3, Carbonic anhydrase 1; remark: listed apart in the source
Target sequence in this assay (P00915 whole entry): as the sequence (P00915 whole entry) above

[14] = in vitro; conditions: human
Description: Selectivity index, ratio of CC50 for cytotoxicity against HGF cells to CC50 for cytotoxicity against human Ca9-22 cells by MTT method

[15] = in vitro; conditions: human; remark: listed apart in the source
Description: Selectivity index, ratio of CC50 for cytotoxicity against HPLF cells to CC50 for cytotoxicity against human Ca9-22 cells by MTT method

[16] = test system: Ca9-22; experiment: cells; assay type: functional; conditions: Homo sapiens, time 48 hrs
Description: Cytotoxicity against human Ca9-22 cells assessed as cell growth inhibition measured after 48 hrs by MTT assay

[17] = test system: HSC-2; experiment: cells; assay type: functional; conditions: Homo sapiens, time 48 hrs
Description: Cytotoxicity against human HSC-2 cells assessed as cell growth inhibition measured after 48 hrs by MTT assay

[18] = in vitro; conditions: human; remark: listed apart in the source
Description: Selectivity index, ratio of CC50 for cytotoxicity against HPLF cells to CC50 for cytotoxicity against human HSC-2 cells by MTT method

[19] = in vitro; conditions: human; remark: listed apart in the source
Description: Selectivity index, ratio of CC50 for cytotoxicity against HGF cells to CC50 for cytotoxicity against human HSC-2 cells by MTT method

[20] = molecular target: T3, Carbonic anhydrase 1; remark: listed apart in the source
Target sequence in this assay (P00915 2-261 limits assumed): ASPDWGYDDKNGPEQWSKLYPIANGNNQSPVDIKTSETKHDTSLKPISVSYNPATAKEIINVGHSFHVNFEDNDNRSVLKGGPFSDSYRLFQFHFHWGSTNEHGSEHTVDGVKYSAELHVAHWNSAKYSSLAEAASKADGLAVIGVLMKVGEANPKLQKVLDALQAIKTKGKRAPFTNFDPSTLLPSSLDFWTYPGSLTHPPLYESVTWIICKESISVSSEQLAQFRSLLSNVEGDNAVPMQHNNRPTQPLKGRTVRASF

[21] = molecular target: T4, Carbonic anhydrase 9; remark: listed apart in the source
[22] = test system: SH-SY5Y; experiment: cells; assay type: functional, cell-based; conditions: Homo sapiens, 48 h
Description: Cytotoxicity against human SH-SY5Y cells assessed as cell growth inhibition measured after 48 hrs by MTT assay

[23] = test system: MCF7; experiment: cells; assay type: functional, cell-based; conditions: Homo sapiens, MCF7, 48 h
Description: Cytotoxicity against human MCF7 cells assessed as cell growth inhibition measured after 48 hrs by MTT assay

[24] = test system: HT-1080; experiment: cells; assay type: functional, cell-based; conditions: Homo sapiens, HT-1080, 48 h
Description: Cytotoxicity against human HT-1080 cells assessed as cell growth inhibition measured after 48 hrs by MTT assay

[25] = molecular target: Carbonic anhydrase 4 (Homo sapiens, UniProt P22748)
Sequence of Carbonic anhydrase 4 (P22748 whole entry): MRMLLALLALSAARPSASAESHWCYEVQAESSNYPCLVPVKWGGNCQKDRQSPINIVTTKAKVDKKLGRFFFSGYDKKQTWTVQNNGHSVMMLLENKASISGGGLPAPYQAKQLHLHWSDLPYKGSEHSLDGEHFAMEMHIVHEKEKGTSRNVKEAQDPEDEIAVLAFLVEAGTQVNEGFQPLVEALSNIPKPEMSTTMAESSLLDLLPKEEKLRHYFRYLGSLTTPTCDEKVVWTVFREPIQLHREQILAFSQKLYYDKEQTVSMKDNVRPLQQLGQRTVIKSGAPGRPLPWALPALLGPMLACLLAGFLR

[26] = molecular target: Carbonic anhydrase 5A, mitochondrial (Homo sapiens, UniProt P35218)
Sequence of Carbonic anhydrase 5A, mitochondrial (P35218 whole entry): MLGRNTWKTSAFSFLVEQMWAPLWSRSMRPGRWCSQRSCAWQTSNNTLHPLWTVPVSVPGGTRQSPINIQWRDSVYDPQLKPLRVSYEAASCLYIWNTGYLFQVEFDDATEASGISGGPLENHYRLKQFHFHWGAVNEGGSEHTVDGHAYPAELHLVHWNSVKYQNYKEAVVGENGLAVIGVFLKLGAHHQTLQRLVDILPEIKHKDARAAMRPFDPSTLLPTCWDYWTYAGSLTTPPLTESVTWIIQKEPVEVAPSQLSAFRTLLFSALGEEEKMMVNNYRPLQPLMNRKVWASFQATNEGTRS

T1 sequence (O43570 whole entry): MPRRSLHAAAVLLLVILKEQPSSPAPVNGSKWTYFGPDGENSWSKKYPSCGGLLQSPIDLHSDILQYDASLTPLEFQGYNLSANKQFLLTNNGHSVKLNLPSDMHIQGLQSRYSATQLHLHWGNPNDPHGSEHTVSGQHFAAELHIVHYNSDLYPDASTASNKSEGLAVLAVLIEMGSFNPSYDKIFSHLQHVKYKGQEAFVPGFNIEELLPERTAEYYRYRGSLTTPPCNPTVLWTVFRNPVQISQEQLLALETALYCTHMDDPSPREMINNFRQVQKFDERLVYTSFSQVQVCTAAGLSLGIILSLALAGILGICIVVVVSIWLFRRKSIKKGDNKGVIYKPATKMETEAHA

Kis [1]: 0.64 µM
Compound: O=[N+]([O-])c1ccc2c(c1)C=CCS(=O)(=O)O2

Kis [1]: 0.64 µM
Compound: O=S1(=O)CC=Cc2cc(-n3cc(-c4ccc(C(F)(F)F)cc4)nn3)ccc2O1

Ki [2]: 34.3 nM
Ki [3]: 6.5 nM
Ki [4]: 90.2 nM
Ki [5]: 21.4 nM
Compound: NS(=O)(=O)c1ccc(N/N=C2\C(=O)Nc3ccccc32)cc1

IC50 [6]: 1800 nM
inhibition at 96 h, 1 % [7]: 74%
Ki [8]: 0.009 nM
Compound: COC(=O)[C@H]1O[C@@H](O)[C@H](O)[C@@H](O)[C@@]1(O)S(=O)(=O)Nc1ccccc1C(N)=O

Compound: NS(=O)(=O)c1ccc(N2N=C(c3cccs3)CC2c2ccc(Br)cc2)cc1 (stereo not given)
Ki [9]: 37.3 nM
Ki [10]: 25.6 nM
Ki [11]: 80.6 nM

Ki [12]: 5.02 nM
Ki [13]: 8.57 nM
Compound: O=C1C(=O)N(CN2CCOCC2)c2ccccc21

inhibition at 96 h, 1 % [7]: 74%
Ki [8]: 0.009 nM
Compound: NS(=O)(=O)c1ccc(C(=O)N[C@@H]2O[C@H](CO)[C@@H](O)[C@H](O)[C@@H]2O)cc1

Ki [2]: 34.3 nM
Ki [3]: 3 nM
Ki [5]: 16.4 nM
Compound: NS(=O)(=O)c1ccc(NCC(=O)N/N=C2\C(=O)N(Cc3ccccc3)c3ccccc32)cc1

Ki [12]: 5.02 nM
Ki [13]: 8.57 nM
Compound: CN1CCN(CN2C(=O)C(=O)c3ccccc32)CC1

Compound: COc1cc(C2CC(c3ccc(F)cc3)=NN2c2ccc(S(N)(=O)=O)cc2)cc(OC)c1OC (stereo not given)
selectivity ratio [14]: 1.1
selectivity ratio [15]: 1.1
Ki [2]: > 9 nM
CC50 [16]: 6300 nM
Ki [3]: 0.089 nM
CC50 [17]: 7300 nM
selectivity ratio [18]: 1.1
selectivity ratio [19]: 1.1
Ki [4]: > 230 nM
Ki [5]: > 44 nM

Kis [20]: 84.3 nM
Kis [21]: 3 nM
Compound: CC(C)(C)c1ccc2c(c1)C(=O)N(NC(=O)c1ccc(S(N)(=O)=O)cc1)C2=O

IC50 [22]: 18400 nM
IC50 [23]: 1800 nM
IC50 [24]: 7900 nM
Compound: O=S1(=O)C=Cc2cc(-c3nnnn3-c3ccc(F)c(Cl)c3)ccc2O1

IC50 [6]: 1800 nM
Ki [8]: 0.009 nM
Compound: C[C@@H]1O[C@H](NC(=O)c2ccc(S(N)(=O)=O)cc2)[C@H](O)[C@H](O)[C@H]1O

Ki [2]: 5.4 nM
IC50 [22]: 18400 nM
IC50 [23]: 1800 nM
IC50 [24]: 7900 nM
Ki [5]: 6.9 nM
Compound: O=S1(=O)C=Cc2cc(-c3nnnn3-c3ccccc3)ccc2O1

Ki [2]: 5.4 nM
IC50 [22]: 18400 nM
IC50 [23]: 1800 nM
IC50 [24]: 7900 nM
Ki [5]: 6.9 nM
Compound: O=S1(=O)C=Cc2cc(-n3cc(-c4ccc(Cl)cc4)nn3)ccc2O1

Ki [25]: 8.9 nM
Compound: COc1cc(S(N)(=O)=O)ccc1-c1nc(-c2cccc(F)c2)no1

Ki [26]: 58.7 nM
Compound: CC(C)[C@@H](NC(=O)OCc1ccccc1)C(=O)NCCc1ccc(S(N)(=O)=O)cc1

Ki [2]: 34.3 nM
Ki [3]: 3 nM
Ki [5]: 13.9 nM
Compound: NS(=O)(=O)c1ccc(N=C2C(=O)Nc3ccccc32)cc1

inhibition at 96 h, 1 % [7]: 74%
Compound: NS(=O)(=O)c1ccc(C(=O)N[C@@H]2OC[C@@H](O)[C@H](O)[C@H]2O)cc1

Kis [1]: 0.64 µM
Compound: Nc1ccc2c(c1)C=CCS(=O)(=O)O2
